What was measured:
Format in all cases: functional
[1] = Cytotoxicity against human OVCAR5 cells assessed as cell growth at 10 uM after 2 days by SRB assay relative to control; settings: OVCAR-5, 48 h, read-out: Activity
[2] = Cytotoxicity against human 786-0 cells assessed as cell growth at 10 uM after 2 days by SRB assay relative to control; settings: 786-0, 48 h, read-out: Activity
[3] = Cytotoxicity against human HCC2998 cells assessed as cell growth at 10 uM after 2 days by SRB assay relative to control; settings: HCC 2998, 48 h, read-out: Activity
[4] = Cytotoxicity against human A549 cells assessed as cell growth at 10 uM after 2 days by SRB assay relative to control; settings: A549, 48 h, read-out: Activity
[5] = Cytotoxicity against human MCF7 cells assessed as cell growth at 10 uM after 2 days by SRB assay relative to control; settings: MCF7, 48 h, read-out: Activity
[6] = Cytotoxicity against human Hs 578T cells assessed as cell growth at 10 uM after 2 days by SRB assay relative to control; settings: 48 h, read-out: Activity
[7] = Cytotoxicity against human OVCAR3 cells assessed as cell growth at 10 uM after 2 days by SRB assay relative to control; settings: OVCAR-3, 48 h, read-out: Activity
[8] = Cytotoxicity against human DU145 cells assessed as cell growth at 10 uM after 2 days by SRB assay relative to control; settings: DU-145, 48 h, read-out: Activity
[9] = Cytotoxicity against human HOP92 cells assessed as cell growth at 10 uM after 2 days by SRB assay relative to control; settings: HOP-92, 48 h, read-out: Activity
[10] = Cytotoxicity against human UACC257 cells assessed as cell growth at 10 uM after 2 days by SRB assay relative to control; settings: UACC-257, 48 h, read-out: Activity
[11] = Cytotoxicity against human COLO205 cells assessed as cell growth at 10 uM after 2 days by SRB assay relative to control; settings: COLO 205, 48 h, read-out: Activity
[12] = Cytotoxicity against human LOXIMVI cells assessed as cell growth at 10 uM after 2 days by SRB assay relative to control; settings: LOX IMVI, 48 h, read-out: Activity
[13] = Cytotoxicity against human MDA-MB-231 cells assessed as cell growth at 10 uM after 2 days by SRB assay relative to control; settings: MDA-MB-231, 48 h, read-out: Activity
[14] = Cytotoxicity against human PC3 cells assessed as cell growth at 10 uM after 2 days by SRB assay relative to control; settings: PC-3, 48 h, read-out: Activity
[15] = Cytotoxicity against human BT549 cells assessed as cell growth at 10 uM after 2 days by SRB assay relative to control; settings: BT-549, 48 h, read-out: Activity
[16] = Cytotoxicity against human HeLa cells assessed as reduction in cell viability cell at 300 uM after 24 hrs by MTT assay
[17] = Cytotoxicity against human A498 cells assessed as cell growth at 10 uM after 2 days by SRB assay relative to control; settings: A498, 48 h, read-out: Activity

SMILES | growth at 10 µM [1] [%] | growth at 10 µM [2] [%] | growth at 10 µM [3] [%] | growth at 10 µM [4] [%] | growth at 10 µM [5] [%] | growth at 10 µM [6] [%] | growth at 10 µM [7] [%] | growth at 10 µM [8] [%] | growth at 10 µM [9] [%] | growth at 10 µM [10] [%] | growth at 10 µM [11] [%] | growth at 10 µM [12] [%] | growth at 10 µM [13] [%] | growth at 10 µM [14] [%] | growth at 10 µM [15] [%] | inhibition at 300 µM [16] [%] | growth at 10 µM [17] [%]
O=c1c(O)c(N[C@H]2C=C[C@@H](CO)C2)c1=O | 108 | 102 | 106 | 108 | 107 | 146 | 122 | 120 | 121 | 100 | 134 | 117 | 150 | 110 | – | – | –
Nc1c(N[C@H]2C=C[C@@H](CO)C2)c(=O)c1=O | 106 | 106 | 107 | 97.9 | 101 | 129 | – | – | 104 | 97.7 | 121 | 96.4 | 113 | 103 | 115 | 50 | 114
COc1c(N[C@H]2C=C[C@@H](CO)C2)c(=O)c1=O | 100 | 98.5 | 107 | 97.8 | 94.2 | 114 | 105 | 117 | 111 | 89 | 141 | 97.8 | 110 | 101 | 110 | – | 105

Reference: ChEMBL document CHEMBL3871297, “Squarate-based carbocyclic nucleosides: Syntheses, computational analyses and anticancer/antiviral evaluation” (2017)
